Test results taken from US5798335A, “Method for the treatment or prevention of eczema/dermatitis” (priority 1993, dated 1998).

Columns and labels:
inflammatory lesions = details: three lesions severity 1 on back; dermal spray morning and afternoon; after three days
Experimental: The usefulness of the method of the present invention was assessed in experiments using dogs.

skin conditions = system: skin conditions
Experimental: Following these initial trials a further trial was conducted […].
The trial was a double-blinded, placebo controlled trial in which the compound was compared with placebo treatment. […] The study was conducted as follows:
1. Assessment by a veterinarian.
2. Treatment Period A: 14 days.
3. Assessment by a veterinarian.
4. No treatment for seven days as a wash-out period.
5. Assessment by a veterinarian.
6. Treatment Period B: 14 days.
7. Assessment by a veterinarian.
8. No treatment for seven days.
9. Assessment by a veterinarian.

In the case of “D-Ala-Ser-Thr-Thr-Thr-Asn-Tyr-Thr-NH2 [Peptide T]”, the “Treatment results (lesions)” value (inflammatory lesions) is reported as “Lesions had disappeared”, the “cases of mild improvement in one parameter (usually erythema)” value (skin conditions; 14 day treatment period, crossover with placebo) is reported as “five” and the “dogs with significant improvement” value (skin conditions; 14 day treatment period, these dogs had atopic dermatitis) is reported as “two”. For the same substance, the “dogs with no change” value (skin conditions; 14 day treatment periods, crossover with placebo) was “ten”.
